Experimental data reported in patent US11267844B2, “Spirothietane nucleosides” (Janssen Pharmaceutica NV, priority 2017, dated 2022).
Like-named read-outs stand apart in the source and are kept apart here.

Experiments:
[1] = Cytotoxicity in Huh-7 cells (ATPlite cell viability); format: cell-based; settings: human, Table 1A, read-out: Tox Huh-7 (CC50)
Procedure: (§1) The antiviral activity of the compounds against DENV-2/16681/eGFP was determined in a phenotypic antiviral assay with eGFP read-out, a measure for the amount of virus (TV-WI-03476 and TV-WI-05601). In parallel, cytotoxicity of the compounds was measured using ATPLite™ (PerkinElmer, Waltham, Mass.). The assay was performed in two different cell-lines (Vero and Huh-7) to exclude cell-specific activity of the compound.
(§2) In parallel, cytotoxic effects of the compounds (50% cytotoxic concentration [CC50] and 90% cytotoxic concentration [CC90]) were evaluated using an ATPlite cell viability luminescence assay (PerkinElmer). To this end, ATPlite was added to the wells according to the supplier's instructions once the eGFP read-out was performed, and the luminescence was measured; a measure directly relating to the number of viable cells. The CC50 was determined as the 50% inhibitory concentration for the luminescent signal in compound-treated DENV-infected cells compared to untreated DENV-infected cells (virus control), using a medium control as baseline of emitted light (i.e., 0% signal).

[2] = Cytotoxicity in Vero cells (ATPlite cell viability); format: cell-based; settings: African green monkey, Table 1A, read-out: Tox Vero (CC50)
Procedure: as §1, §2

DENV-2/16681/eGFP [3] = experiment: Antiviral activity against DENV-2/16681/eGFP in Huh-7 cells (eGFP read-out); format: cell-based, dengue virus serotype 2; settings: Dengue virus, DENV2, Huh-7, 72 h, read-out: DENV Huh-7 (EC50, μM)
Procedure: as §1
(§3) DENV-2/16681/eGFP was produced by the transfection of the in vitro transcribed RNA of plasmid pFK-DVs-G2A (purchased from Prof. R. Bartenschlager, University of Heidelberg, Germany; FIG. 1) into Huh-7 cells (human hepatocarcinoma cells; kindly provided by Prof. R. Bartenschlager) (TV-WI-04247).
(§4) In brief, 2,500 Vero cells (African green monkey kidney cells; European Collection of Cell Cultures [ECACC], Porton Down, UK; catalogue number 84113001) or Huh-7 cells were seeded in 384-well plates containing 9-fold serially diluted test compound. After incubating 24 h at 37° C., Vero and Huh-7 cells were infected with DENV-2/16681/eGFP at a multiplicity of infection (MOI) of 1 and 5, respectively. After 3 days of incubation at 37° C., the viral replication was quantified by measuring eGFP expression in the cells with a laser microscope. The 50% effective concentration (EC50) was defined as the concentration inhibiting 50% of the eGFP expression of the compound-treated DENV-infected cells vs. the untreated DENV-infected cells (virus control), using the cell controls as baseline of eGFP signal (i.e., 0% signal). In the same way, the 90% effective concentration (EC90) was calculated.

[4] = system: HCV replicon (NS3-NS5B regions of HCV type 1b) in Huh-7 luc/neo cells; experiment: HCV replicon assay (Huh-Luc cells, luciferase read-out); format: cell-based; settings: Hepatitis C virus
Source text: The compounds of Formula (I) were examined for activity against HCV in a cellular assay. […] The cellular assay was based on a bicistronic expression construct, as described by Lohmann et al. (1999) Science vol. 285 pp. 110-113 with modifications described by Krieger et al. (2001) Journal of Virology 75: 4614-4624, in a multi-target screening strategy.
In essence, the method was as follows. The assay utilized the stably transfected cell line Huh-7 luc/neo (hereafter referred to as Huh-Luc). This cell line harbors an RNA encoding a bicistronic expression construct comprising the wild type NS3-NS5B regions of HCV type 1b translated from an internal ribosome entry site (IRES) from encephalomyocarditis virus (EMCV), preceded by a reporter portion (FfL-luciferase), and a selectable marker portion (neo^R, neomycine phosphotransferase). The construct is bordered by 5′ and 3′ NTRs (non-translated regions) from HCV genotype 1b. Continued culture of the replicon cells in the presence of G418 (neo^R) is dependent on the replication of the HCV-RNA. The stably transfected replicon cells that express HCV-RNA, which replicates autonomously and to high levels, encoding inter alia luciferase, were used for screening the antiviral compounds.
The replicon cells were plated in 384-well plates in the presence of the test and control compounds which were added in various concentrations. Following an incubation of three days, HCV replication was measured by assaying luciferase activity (using standard luciferase assay substrates and reagents and a Perkin Elmer ViewLux™ ultraHTS microplate imager). Replicon cells in the control cultures have high luciferase expression in the absence of any inhibitor. The inhibitory activity of the compound on luciferase activity was monitored on the Huh-Luc cells, enabling a dose-response curve for each test compound. EC50 values were then calculated, which value represents the amount of the compound required to decrease the level of detected luciferase activity by 50%, or more specifically, the ability of the genetically linked HCV replicon RNA to replicate.

CHIKV strain S27 = experiment: CHIKV CPE inhibition assay in Huh7 cells; format: cell-based; settings: Chikungunya virus
Procedure: The antiviral activities of the nucleoside analogs against chikungunya virus (CHIKV) were tested using a cell-based high-throughput CPE (cytopathic effect) inhibition assay. In this assay, CHIKV strain S27 and Huh7 cells (a human hepatoma cell line) were employed. The test compounds were prepared in a 9-point fourfold serial dilutions and plated in a 384-well plate. Then, a density of 8000 cells/well and an MOI (Multiplicity of Infection) of 0.25 CHIKV were added to each well. The plates were incubated at 37° C./5% CO2 for 2 days. The antiviral activity of a test compound was measured by addition of an ATPLite™ 1-step kit (PerkinElmer), which measures the ATP levels in live cells protected from viral CPE by a test compound. The cytotoxicity of test compounds was measured in parallel in the absence of virus infection. The readout is luminescence.

DENV-2/16681/eGFP [5] = experiment: Antiviral activity against DENV-2/16681/eGFP in Vero cells (eGFP read-out); format: cell-based, dengue virus serotype 2; settings: Dengue virus, DENV2, Vero, 72 h, read-out: DENV Vero (EC50, μM)
Procedure: as §1, §3, §4

[6] = Huh-7, 72 h, Table 1A, Huh-Luc replicon cells, 3 days, read-out: HCV Huh-7 (EC50)
[7] = Huh-7, 48 h, read-out: CHIKV Huh-7 (EC50, μM)
[8] = Huh-7, Table 1C, comparison with spiro-oxetane derivatives, read-out: HCV, Huh-7 (EC50)
[9] = Huh-7, 48 h, Table 1A, Huh7 cells, MOI 0.25, 2 days, read-out: CHIKV Huh-7 (EC50)
[10] = Huh-7, Table 1C, comparison with spiro-oxetane derivatives, read-out: CHIKV, Huh7 (EC50)

| Compound | CC50 [1] | CC50 [2] | EC50 (DENV-2/16681/eGFP [3]) | EC50 [4, 6] | EC50 (CHIKV strain S27; [7]) | EC50 (DENV-2/16681/eGFP [5]) | EC50 [4, 8] | EC50 (CHIKV strain S27; [9]) | EC50 (CHIKV strain S27; [10]) | EC50 ([4]; Huh-7, 72 h, read-out: HCV Huh-7 (EC50, μM)) |
| --- | --- | --- | --- | --- | --- | --- | --- | --- | --- | --- |
| Nc1ncnc2c1ncn2[C@@H]1O[C@H](CO)[C@@H](O)[C@]12CCS2 [Compound 67, (4R,5R,7R,8R)-5-(6-amino-9H-purin-9-yl)-7-(hydroxymethyl)-6-oxa-1-thiaspiro[3.4]octan-8-ol] | > 50 µM | > 50 µM | > 50 µM | > 50 µM | > 50 µM | > 50 µM | – | – | – | – |
| CC(C)OC(=O)[C@H](C)NP(=O)(OC[C@@]1(F)O[C@@H](n2ccc(=O)[nH]c2=O)[C@@]2(CCS2)[C@@H]1O)Oc1ccccc1 (stereo partly drawn) [Compound 23, (2S)-isopropyl 2-(((((4R,5R,7S,8R)-5-(2,4-dioxo-3,4-dihydropyrimidin-1(2H)-yl)-7-fluoro-8-hydroxy-6-oxa-1-thiaspiro[3.4]octan-7-yl)methoxv)(phenoxy)phosphoryl)amino)propanoate] | > 100 µM | > 100 µM | 14 µM | 2 µM | – | 85 µM | 2 µM | 3 µM | 3 µM | – |
| O=c1ccn([C@@H]2O[C@](F)(COP(=O)(NC3CCC3)Oc3ccc(Cl)cc3)[C@@H](O)[C@]23CCS3)c(=O)[nH]1 (stereo partly drawn) [Compound 39, 4-chlorophenyl (((4R,5R,7S,8R)-5-(2,4-dioxo-3,4-dihydropyrimidin-1(2H)-yl)-7-fluoro-8-hydroxy-6-oxa-1-thiaspiro[3.4]octan-7-yl)methyl) cyclobutylphosphoramidate] | > 100 µM | > 100 µM | 49 µM | > 100 µM | – | 45 µM | – | > 100 µM | – | – |
| CC(C)OC(=O)[C@H](C)NP(=O)(OC[C@H]1O[C@@H](n2ccc(N)nc2=O)[C@@]2(CCS2)[C@@H]1O)Oc1ccccc1 (stereo partly drawn) [Compound 17, (2S)-isopropyl 2-(((((4R,5R,7R,8R)-5-(4-amino-2-oxopyrimidin-1(2H)-yl)-8-hydroxy-6-oxa-1-thiaspiro[3.4]octan-7-yl)methoxy)(phenoxy)phosphoryl)amino)propanoate] | > 50 µM | > 50 µM | 19 µM | > 50 µM | – | > 50 µM | – | > 50 µM | – | – |
| CC(C)OC(=O)[C@H](C)NP(=O)(OC[C@H]1O[C@@H](n2ccc(=O)[nH]c2=O)[C@@]2(CCO2)[C@@H]1O)Oc1ccccc1 (mixture of isomers) [reference compound] | – | – | – | – | – | – | 21 µM | – | > 100 µM | – |
| O=c1ccn([C@@H]2O[C@]3(F)COP(=O)(OC4CCCC4)O[C@H]3[C@]23CCS3)c(=O)[nH]1 (stereo partly drawn) [Compound 35, 1-((2′R,4aS,6R,7aR)-2-(cyclopentyloxy)-4a-fluoro-2-oxidotetrahydrospiro[furo[3,2-d][1,3,2]dioxaphosphinine-7,2′-thietan]-6-yl)pyrimidine-2,4(1H,3H)-dione] | > 100 µM | > 100 µM | > 100 µM | 25 µM | 72 µM | > 100 µM | – | – | – | – |
| CC(C)OC(=O)[C@H](C)NP(=O)(OC[C@@]1(F)O[C@@H](n2ccc(N)nc2=O)[C@@]2(CCS2)[C@@H]1O)Oc1ccccc1 (stereo partly drawn) [Compound 31, (2S)-isopropyl 2-(((((4R,5R,7S,8R)-5-(4-amino-2-oxopyrimidin-1(2H)-yl)-7-fluoro-8-hydroxy-6-oxa-1-thiaspiro[3.4]octan-7-yl)methoxy)(phenoxy)phosphoryl)amino)propanoate] | > 100 µM | > 100 µM | 36 µM | 11 µM | – | > 100 µM | – | > 100 µM | – | – |
| Nc1ccn([C@@H]2O[C@H](CO)[C@@H](O)[C@]23CCS3)c(=O)n1 [Compound 12, 4-amino-1-((4R,5R,7R,8R)-8-hydroxy-7-(hydroxymethyl)-6-oxa-1-thiaspiro[3.4]octan-5-yl)pyrimidin-2(1H)-one] | > 100 µM | > 100 µM | > 100 µM | > 100 µM | > 100 µM | > 100 µM | – | – | – | – |
| O=c1ccn([C@@H]2O[C@](F)(COP(=O)(Oc3ccccc3Cl)OC3CCCC3)[C@@H](O)[C@]23CCS3)c(=O)[nH]1 (stereo partly drawn) [Compound 34, 2-chlorophenyl cyclopentyl (((4R,5R,7S,8R)-5-(2,4-dioxo-3,4-dihydropyrimidin-1(2H)-yl)-7-fluoro-8-hydroxy-6-oxa-1-thiaspiro[3.4]octan-7-yl)methyl) phosphate] | > 100 µM | > 100 µM | 53 µM | – | > 100 µM | 35 µM | – | – | – | > 100 µM |
| CC(C)C(=O)OC[C@H]1O[C@@H](n2ccc(=O)[nH]c2=O)[C@@]2(CCS2)[C@@H]1OC(=O)C(C)C [Compound 10, (4R,5R,7R,8R)-5-(2,4-dioxo-3,4-dihydropyrimidin-1(2H)-yl)-7-((isobutyryloxy)methyl)-6-oxa-1-thiaspiro[3.4]octan-8-yl isobutyrate] | > 100 µM | > 100 µM | > 100 µM | > 100 µM | > 100 µM | > 100 µM | – | – | – | – |
| O=c1ccn([C@@H]2O[C@H](CO)[C@@H](O)[C@]23CCS3)c(=O)[nH]1 [Compound 7, 1-((4R,5R,7R,8R)-8-hydroxy-7-(hydroxymethyl)-6-oxa-1-thiaspiro[3.4]octan-5-yl)pyrimidine-2,4(1H,3H)-dione] | > 100 µM | > 100 µM | – | > 100 µM | – | > 100 µM | – | – | – | – |
| CC(C)OC(=O)[C@H](C)NP(=O)(OC[C@@]1(F)O[C@@H](n2ccc(=O)[nH]c2=O)[C@@]2(CCO2)[C@@H]1O)Oc1ccccc1 (mixture of isomers) [reference compound] | – | – | – | – | – | – | > 100 µM | – | > 100 µM | – |
